Laboratory results from patent US20070264212A1, “Skin Lightening Method” (priority 2004, published 2007).
“Also recorded” adds a separate entry of the source.

Tests used:
Type in all cases: in vivo, human
[1] = test system: skin tone of adult test subject, skin type IV (moderate brown), Fitzpatrick classification; experiment: Skin tone lightening by oral MSM supplement taken twice daily (Table I); conditions: 3 months
Description: A first procedure for performing step 102 is described in Table I below, at various dosage levels and application periods. The application periods indicated in the table were carried out in immediately successive periods on the same individual. Exemplary results are also shown in Table I, for an adult test subject of approximately 45 kg weight having a skin type IV (moderate brown) according to the Fitzpatrick skin type classification. […] Because of variation between individuals, the effective amount of MSM that should be delivered to cause a noticeable change in skin tone may vary somewhat. For example, dosage should be calculated based on body weight. Based on the disclosure herein, one of ordinary skill should be able to determine an effective dosage regimen without undue experimentation. […] For the tested individual, the optimal dose for maximum skin lightening appears to be between 2000 and 4000 mg (45 to 90 mg/kg) daily.

[2] = test system: skin tone of adult test subject, skin type IV (moderate brown), Fitzpatrick classification; experiment: Skin tone lightening by oral MSM plus topical application of MSM in water solution (Table II); conditions: once daily, 3 months
Description: In an alternative embodiment, step 102 may be performed by oral delivery of MSM in combination with a topical application. […] Exemplary results are also shown in […], for the same test subject reported in Table I. Each row of the table indicates result for a procedure that was performed during one of successive 3-month periods. For each procedure described in Table II, MSM delivered was in an effective amount for the reported test subject. Again, some variation in effective amount should be expected between individuals. For the procedures described in Table II, a topical application may be prepared by dissolving the indicated amount of MSM in water to provide an approximately 15% by weight solution. For example, one tablespoon of MSM may be dissolved in 8 to 10 tablespoons of warm water to prepare the solution indicated in the first row. Then, the solution may be applied to the skin, which may be kept moistened with the solution for a period of approximately ten minutes or longer. The solution may be applied cover the entire body, or only in areas where greater lightening of skin tone is desired. The indicated application may be performed once daily for approximately a three-month period. […] Suitable formulations for transdermal patches to deliver MSM should be readily ascertained by one of ordinary skill.

[3] = test system: skin tone of test subject having a natural skin tone of Fitzpatrick type IV; experiment: Skin tone lightening by oral and topical MSM in combination with an exfoliate; conditions: oral and topical MSM plus exfoliate (e.g. twice-weekly 30% lactic or glycolic acid rinse)
Description: Referring again to FIG. 1, at step 104, a skin lightening effect may be enhanced by application of an exfoliant during the MSM treatment period. The exfoliant is believed to cause more darkly pigmented cells that formed during a pre-treatment period to be more rapidly shed. […] For example, the treatment regimen described in the second row of Table III may be combined with a twice-weekly rinse in an exfoliate solution. A suitable exfoliate solution may comprise, for example, a 30% solution of lactic or glycolic acid. A lactic acid solution may be more suitable for an individual with sensitive skin. In a test using an exfoliate in combination with oral and topical application, the test subject having a natural skin tone of Fitzpatrick type IV achieved and maintained a class III tone overall, with class II tone in constitutive skin areas.

[4] = oral MSM 2000 mg twice daily (4000 mg daily), successive period, same subject

CS(C)(=O)=O [MSM, methyl sulfonyl methane]
Results (observed skin tone) ([1]; oral MSM 100 mg twice daily (200 mg daily), adult person ~45 kg, skin type IV): No Change
Results (observed skin tone) ([1]; oral MSM 250 mg twice daily (500 mg daily), successive period, same subject): No Change
Results (observed skin tone) ([1]; oral MSM 500 mg twice daily (1000 mg daily), successive period, same subject): No Change
Results (observed skin tone), constitutive skin such as under the arms, inner thighs, chests and nipples ([1]; oral MSM 1000 mg twice daily (2000 mg daily), successive period, same subject): Light Brown (skin type III)
Results (observed skin tone), constitutive skin [1, 4]: Olive (skin type II) observed in
Results (observed skin tone), facultative skin such as the neck, face, forearms [1, 4]: Light Brown (skin type III)
Results, freckles on face [1, 4]: Freckles on face also lightened
Results (observed skin tone) ([1]; oral MSM 3000 mg twice daily (6000 mg daily), successive period, same subject): did not cause noticeable lightening relative to the 4000 mg regimen; also recorded: Same results as 4000 mg per day
Results (observed skin tone), total body complexion ([2]; oral 2000 mg twice daily (4000 mg daily) + topical 1 Tablespoon (10,000 mg) MSM in water, approx. 15% solution): Light olive (skin type III)
Results (observed skin tone), elsewhere than constitutive skin ([2]; oral 2000 mg twice daily (4000 mg daily) + topical 2 Tablespoons (20,000 mg) MSM in water): light olive; elsewhere light olive
Skin tone achieved and maintained, constitutive skin areas [3]: class II
Skin tone achieved and maintained, overall [3]: class III
